Values of other authors as cited in patent publication US6635271B1, “Method for increasing the concentration of conjugated linoleic acid in milk and/or tissue fat of a ruminant” (Valio Oy, priority 1997, dated 2003).

Conditions: vaccenic acid fed to mice (Santora et al. 1998)

In the case of CCCCCC/C=C\CCCCCCCCCC(=O)O [vaccenic acid, trans-11 isomer of octadecenoic acid], the “tissue fat CLA concentration” value is given as “tripled”.
